Earlier results on 2 compounds are cited in patent US8883820B2, “Triazole derivatives as kinase inhibitors” (Cellzome Ltd., priority 2006, dated 2014).

Data set [1] deals with systemic lupus erythematosus (SLE). Conditions: intraperitoneal administration.
The test system of data set [2] is collagen II-antibody-induced arthritis. Conditions: oral, wildtype mice.
Data set [3] has as its system lymphocyte-dependent rheumatoid arthritis induced by direct collagen II injection. Conditions: oral.

For `Nc1nc(N)c2nc(-c3cccc(O)c3)c(-c3cccc(O)c3)nc2n1` [TG100-115], the cardioprotection result in the data set with myocardial infarction (dosing after myocardial reperfusion (up to 3 hours after)) is “provided cardioprotection”. In addition, the “edema and inflammation in response to multiple mediators” value in the data set with myocardial infarction (in vivo) is given as “potently inhibits”.

Take `O=C1NC(=O)/C(=C\c2ccc3nccnc3c2)S1` [AS-605240]: in data set [1], the “CD4+ T-cell populations” value is recorded as “reduced CD4+ T-cell populations”, the glomerulonephritis result is “reduced glomerulonephritis” and the life span entry is recorded as “prolonged life span”. In data set [2], the “clinical and histologic signs of collagen II-antibody-induced arthritis” value is “reduced clinical and histologic signs”. For the same compound, the “joint inflammation and damage” value in data set [3] is “decreased joint inflammation and damage”.
